Measured values published in ChEMBL document CHEMBL5532646, “Discovery of 4-(N-dithiobenzyl piperazine)-1,8-naphthalimide as a potent multi-target antitumor agent with good efficacy, limited toxicity, and low resistance” (Eur J Med Chem, 2024).
The source made the active and inactive calls. No cut-off for these calls is given here.

Tests used:
[1] = tested on: T-24; assay: Antiproliferative activity against human T24 cells incubated for 48 hrs by MTT assay; assay type: functional, cell-based; conditions: T-24, 48 h
[2] = tested on: HUVEC; assay: Antiproliferative activity against HUVEC cells incubated for 48 hrs by MTT assay; assay type: functional, cell-based; conditions: Homo sapiens
[3] = tested on: T-24; assay: Antiproliferative activity against human T24 cells xenografted in nude mouse model assessed as tumor inhibition rate at 15 mg/kg, ip administered once every two days for 21 days relative to control; assay type: functional; conditions: T-24, 504 h, time 21 day
[4] = Toxicity in nude mouse model xenografted with human T24 cells assessed as pathological change in lung at 15 mg/kg, ip administered once every two days for 21 days; assay type: organism-based, T-24; conditions: in vivo, 504 h, time 21 day
[5] = tested on: HepG2; assay: Antiproliferative activity against human HepG2 cells xenografted in nude mouse model assessed as tumor inhibition rate at 15 mg/kg, ip administered once every two days for 21 days relative to control; assay type: functional; conditions: HepG2, 504 h, time 21 day
[6] = Toxicity in nude mouse model xenografted with human HepG2 cells assessed as pathological change in lung at 15 mg/kg, ip administered once every two days for 21 days; assay type: organism-based; conditions: in vivo, 504 h, time 21 day
[7] = tested on: T-24; assay: Antitumor activity against human T24 cells assessed as effect on PI3K-AKT signaling pathway at 5 uM incubated for 24 hrs by TMT/iTRAQ analysis; assay type: functional, cell-based
[8] = tested on: T-24; assay: Upregulation of fatty acid metabolism in human T24 cells at 5 uM incubated for 24 hrs by KEGG analysis; assay type: functional, cell-based
[9] = tested on: T-24; assay: Induction of ferroptosis in human T24 cells assessed as increase in lipid peroxide level at 5 uM incubated for 24 hrs by fluorescence based analysis; assay type: functional, cell-based
[10] = tested on: T-24; assay: Induction of ferroptosis in human T24 cells assessed as smaller mitochondria at 5 uM incubated for 24 hrs by TEM analysis; assay type: functional, cell-based
[11] = tested on: T-24; assay: Induction of ferroptosis in human T24 cells assessed as increase in mitochondrial membrane density at 5 uM incubated for 24 hrs by TEM analysis; assay type: functional, cell-based
[12] = tested on: T-24; assay: Induction of autophagy in human T24 cells assessed as appearance of autophagic vesicles at 5 uM incubated for 48 hrs by TEM analysis; assay type: functional, cell-based
[13] = tested on: T-24; assay: Downregulation of pAKT1 at S473 level in human T24 cells at 2 to 8 uM incubated for 24 hrs by Western blot analysis; assay type: functional, cell-based; conditions: dose 2-8 µM
[14] = tested on: T-24; assay: Downregulation of AKT1 level in human T24 cells at 2 to 8 uM incubated for 24 hrs by Western blot analysis; assay type: functional, cell-based; conditions: dose 2-8 µM
[15] = tested on: T-24; assay: Anti-migratory activity against human T24 cells at 1 to 10 uM incubated upto 48 hrs by wound healing assay; assay type: functional, cell-based; conditions: dose 1-10 µM
[16] = tested on: T-24; assay: Anti-migratory activity against human T24 cells incubated upto 48 hrs by wound healing assay; assay type: functional, cell-based
[17] = tested on: T-24; assay: Induction of apoptosis in human T24 cells assessed as increase in cleaved caspase-3 level at 2 to 8 uM incubated for 24 hrs by Western blot analysis; assay type: functional, cell-based; conditions: dose 2-8 µM
[18] = tested on: T-24; assay: Induction of cell cycle arrest at G0/G1 phase in human T24 cells at 2 uM incubated for 24 hrs by flow cytometry (reference value: 75.31 %); assay type: functional
[19] = tested on: T-24; assay: Induction of cell cycle arrest at G0/G1 phase in human T24 cells at 5 uM incubated for 24 hrs by flow cytometry (reference value: 75.31 %); assay type: functional
[20] = tested on: T-24; assay: Induction of cell cycle arrest at S phase in human T24 cells at 5 uM incubated for 24 hrs by flow cytometry (reference value: 12.39 %); assay type: functional
[21] = tested on: T-24; assay: Induction of cell cycle arrest at G0/G1 phase in human T24 cells at 8 uM incubated for 24 hrs by flow cytometry (reference value: 75.31 %); assay type: functional
[22] = tested on: T-24; assay: Induction of cell cycle arrest at G2/M phase in human T24 cells at 8 uM incubated for 24 hrs by flow cytometry (reference value: 12.30 %); assay type: functional

## CN(C)CCN1C(=O)c2cccc3c(N4CCN(C(=S)SCc5ccccc5)CC4)ccc(c23)C1=O
[1]
  IC50: 3.03 µM
[2]
  IC50: 16.7 µM
[3]
  inhibition in vivo at 15 mg/kg: 56.3%
[4]
  Activity: Non-Toxic
[5]
  inhibition in vivo at 15 mg/kg: 50%
[6]
  Activity: Non-Toxic
[7]
  Activity: Active
[8]
  Activity: Active
[9]
  Activity: Active
[10]
  Activity: Active
[11]
  Activity: Active
[12]
  Activity: Active
[13]
  Activity: Active
[14]
  Activity: Active
[15]
  Activity: Active
[16]
  Activity: Dose-Dependent Effect
[17]
  Activity: Active
[18]
  Activity: 42.37%
[19]
  Activity: 51.06%
[20]
  Activity: 30.58%
[21]
  Activity: 70.18%
[22]
  Activity: 16.61%
